The results in this text go back to PubChem BioAssay AID1645868 (Buhrlage Lab, Dana-Farber Cancer Institute and Novartis …, 2021).

Each structure is given as a SMILES string. Activity calls are given as the source filed them.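 The calls were made as follows: active = maximal percent inhibition of the deubiquitinase OTUD3 of at least 30% across the tested doses; inactive = the rest.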 A value given as a limit tells only on which side of the number the result lay.

What is called IC50 is the concentration at which inhibition is half-maximal.

The test has as its target OTU domain-containing protein 3 (Homo sapiens) (UniProt Q5T2D3). The experiment in a line: Validation of screening hits, potency titration, in vitro enzymatic, OTU domain-containing protein 3 DUB inhibitors (AID 1645868). The note with it: purified OTUD3, ubiquitin-rhodamine cleavage fluorescence, 2 h.

Chain of OTU domain-containing protein 3 (Homo sapiens) (Q5T2D3 whole entry, looked up, the tested form may be a part): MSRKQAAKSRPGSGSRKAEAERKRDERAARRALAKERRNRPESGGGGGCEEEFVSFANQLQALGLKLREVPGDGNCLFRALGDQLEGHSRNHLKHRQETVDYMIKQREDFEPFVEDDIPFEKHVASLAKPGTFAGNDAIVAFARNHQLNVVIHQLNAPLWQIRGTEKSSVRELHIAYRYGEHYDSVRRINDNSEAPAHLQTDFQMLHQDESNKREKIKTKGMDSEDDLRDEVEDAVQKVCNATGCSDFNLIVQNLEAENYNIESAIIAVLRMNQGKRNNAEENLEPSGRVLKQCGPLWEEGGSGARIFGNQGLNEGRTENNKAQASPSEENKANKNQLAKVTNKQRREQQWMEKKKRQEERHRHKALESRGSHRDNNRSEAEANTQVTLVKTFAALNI

With `Cc1ccc(C(=O)NCC(=O)Nc2nc3ccccc3[nH]2)c(C)c1`, the IC50 was 35.3 µM.

Consider `COc1ccc(-c2ocnc2C(=O)Nc2cccc(Cl)c2C)cc1OC`, for which the IC50 was > 50 µM (inactive).

As to `O=S(=O)(c1ccc(F)cc1)N1CCCC1c1ccnc(Nc2cnccn2)n1` (centres undefined), the IC50 is > 50 µM (inactive).

On to `Cc1ccc2[nH]c(=O)c(CN(Cc3cccnc3)C(=O)c3cccc(Cl)c3)cc2c1`, for which the IC50 was > 50 µM (inactive).

In the case of `COc1ccc(C(=O)NCCc2nnc3ccc(SCC(=O)NCc4ccc(F)cc4)nn23)cc1`, the IC50 is 26.2 µM.

Regarding `O=C(Cn1ccc2ccc(N3CCOCC3)nc21)NCc1ccccc1F`, the IC50 is > 50 µM (inactive).

For `CCN1CCCC1CN(Cc1cc2cc(OC)ccc2[nH]c1=O)C(=O)NCc1ccccc1` (centres undefined), the IC50 was > 50 µM (inactive).

For the compound `COc1ccc(CC(=O)NCc2ccc3[nH]c(C)cc3c2)cc1`, the IC50 is > 50 µM (inactive).

In the case of `COCCCN1CCS(=O)(=O)c2c(Cl)c(F)nc(Oc3ccccc3F)c21`, the IC50 was > 50 µM (inactive).

Turning to `O=S(=O)(O)c1cc2cc3ccccc3cc2[nH]1`, the IC50 is > 50 µM (inactive).

`COC(=O)c1ccc(C(=O)Nc2cc3ccccc3cc2NC(=O)c2ccc(C(=O)OC)cc2)cc1`: the 50% inhibitory concentration (IC50) is 19.1 µM.

As for `c1ccc(CCN2CCc3nc4cccnc4cc3C2)nc1`, the IC50 is > 50 µM (inactive).

Take `Cn1nc(-c2nc(-c3ccccc3)no2)c2c1CCN(C(=O)C1CC1)C2`: the IC50 was > 50 µM (inactive).

For `CC(C)CCn1c(=O)c2ccccc2n2c(CCC(=O)NC3CCCCCC3)nnc12`, the IC50 was > 50 µM (inactive).

Consider `O=C(c1ccc2ncccc2c1)N1CCC2(C1)Nc1cccnc1NC2=NC1CCCC1` (centres undefined), for which the IC50 is > 50 µM (inactive).

As to `CCC(C)c1ccc(-c2csc(Cn3c(CN4CCN(C)CC4)nc4ccccc4c3=O)n2)cc1` (centres undefined), the IC50 is 31.8 µM.

As to `O=S1(=O)NC(=NCCc2ccc(Cl)cc2Cl)c2ccccc21`, the IC50 was > 50 µM (inactive).

As to `COc1ccc(OCCn2c(C3CC(=O)N(c4cccc(C)c4)C3)nc3ccccc32)cc1` (centres undefined), the IC50 is 2.42 µM.

As for `O=C1CC(C(=O)Nc2ccccc2F)n2nc(-c3ccccc3)cc2N1` (centres undefined), the IC50 is 25.1 µM.

Regarding `Cc1ccc(C2=Nc3ccccc3N(CC(=O)Nc3cccc(C)c3C)C(=O)C2)cc1C`, the IC50 was > 50 µM (inactive).

As to `O=C(Nc1ccccc1)c1cn2c3c(cccc3c1=O)CC2`, the IC50 is > 50 µM (inactive).

Turning to `COc1ccccc1C(=O)N1CCc2[nH]c3ccc(F)cc3c2C1`, the IC50 was > 50 µM (inactive).

With `O=C(NCCc1ccccc1)c1nnn(Cc2cccc(Cl)c2)c1-n1cccc1`, the IC50 is > 50 µM (inactive).

On to `COc1ccc(CC(=O)Nc2ccc3nc(N4CCOCC4)cc(C)c3c2)cc1`, for which the IC50 was > 50 µM (inactive).

Take `Cc1cc(C(=O)N2CCOC3(CC=CCN(CCc4ccccc4)C3=O)C2)n2nccc2n1` (centres undefined): the IC50 is > 50 µM (inactive).

On to `COc1cc(/C=C/C(=O)OCC(=O)Nc2ccc([N+](=O)[O-])cc2OC)ccc1O`, for which the IC50 is 24.4 µM.

With `COc1ccc(-c2nc3n(n2)C(c2cccc(O)c2)C2=C(CCCC2=O)N3)cc1` (centres undefined), the IC50 was > 50 µM (inactive).

As for `COC(=O)c1ccc2c(=O)n(CCCCCC(=O)NCCc3ccc(S(N)(=O)=O)cc3)c(=O)[nH]c2c1`, the 50% inhibitory concentration (IC50) is 12.5 µM.

`COc1ccccc1OCCNC(=O)c1cc(C2CC2)nc2c1cnn2C(C)C`: the IC50 is > 50 µM (inactive).

As to `COc1cc(Cl)ccc1Oc1ncnc2sc(C)c(C)c12`, the IC50 was > 50 µM (inactive).

Take `CC(C)NS(=O)(=O)c1ccc(OCC(=O)N2CCC(Cc3ccccc3)CC2)cc1`: the IC50 was > 50 µM (inactive).

In the case of `COc1ccc(-n2ccc(=O)c(-c3nc(-c4ccccc4F)no3)n2)cc1OC`, the IC50 is > 50 µM (inactive).

As to `O=c1c2cc([N+](=O)[O-])ccc2nc(CN2CCN(c3ccccn3)CC2)n1-c1ccccc1F`, the IC50 is > 50 µM (inactive).

For `Oc1ccc(Br)cc1CNc1ccc(F)cc1`, the IC50 is > 50 µM (inactive).

Turning to `CCN1C[C@@H]2C[C@]2(c2ccccc2OC)C(=O)c2ncccc21`, the IC50 was > 50 µM (inactive).

Consider `CC1CCc2c(sc3ncnc(OCc4cccc([N+](=O)[O-])c4)c23)C1` (centres undefined), for which the IC50 was > 50 µM (inactive).

For the compound `Cc1cc(N2CCN(c3ncccn3)CC2)nc2ccc(NC(=O)c3ccncc3)cc12`, the IC50 is 31 µM.

In the case of `C[C@@H]1O[C@@H](O[C@H]2[C@H](O[C@H]3[C@H](O[C@H]4CC[C@@]5(C)[C@@H](CC[C@]6(C)[C@@H]5CC=C5[C@@H]7CC(C)(C)CC(=O)[C@]7(C)CC[C@]56C)[C@@]4(C)CO)O[C@H](C(=O)O)[C@@H](O)[C@@H]3O)OC[C@@H](O)[C@@H]2O)[C@H](O)[C@H](O)[C@H]1O`, the IC50 is > 50 µM (inactive).

As for `Cc1nnc(NCc2cccnc2)c2c1nnn2Cc1ccccc1Cl`, the IC50 is > 50 µM (inactive).

As to `Cc1nc(NCc2ccccn2)c2cc(-c3ccccc3)sc2n1`, the IC50 was 45.3 µM.

Consider `COCCCn1c(C(=O)Nc2ccccc2OC)cc2c(=O)n3ccccc3nc21`, for which the IC50 was > 50 µM (inactive).

With `Cc1ccc(-n2nnc(C(=O)NC3CCCCC3)c2N)cc1`, the IC50 was > 50 µM (inactive).

Take `O=C(Cn1cc(S(=O)(=O)Cc2ccc(Cl)cc2)c2ccccc21)N1CCCCC1`: the IC50 was > 50 µM (inactive).

Regarding `O=C(/C=C/c1ccc(F)cc1)Nc1ccc2c(c1)OCCO2`, the IC50 is > 50 µM (inactive).

For `CC1=C(Cn2c3cccc(=O)c-3nc3ccccc32)CCC(C)(C)C1`, the IC50 was 3.73 µM.

Turning to `O=C(O)c1nccnc1C(=O)N1CCc2ccccc2C1`, the IC50 is > 50 µM (inactive).

Regarding `CCCCCC(=O)N1c2ccccc2NC2=C(C(=O)CC(c3ccc(C(C)(C)C)cc3)C2)C1c1ccncc1` (centres undefined), the IC50 is 19.7 µM.

`Cc1nc(CN2CCn3c(Cn4cccn4)cnc3C2C)cs1` (centres undefined): the IC50 is > 50 µM (inactive).

For the compound `CCS(=O)(=O)c1ccccc1C(=O)Nc1ccc2sc(C)nc2c1`, the IC50 was > 50 µM (inactive).

For the compound `Cc1noc(C)c1COc1cccc(C(=O)Nc2cc(Cl)ccc2-n2cncn2)c1`, the IC50 is > 50 µM (inactive).

With `Nc1c(C(=O)c2cccs2)oc2nc(-c3ccccc3)cc(-c3ccco3)c12`, the IC50 is > 50 µM (inactive).

On to `Cn1c(CCN2CCCC2)nc2cc(NC(=O)c3ccccc3)ccc21`, for which the IC50 is > 50 µM (inactive).

With `Cc1ccc(NC(=O)c2nnn(-c3ccccc3)n2)cc1F`, the IC50 was > 50 µM (inactive).

For the compound `CN1CCN(C(=O)c2ccn(-c3ccc4ccc(-c5cnn(C)c5)cn34)n2)CC1`, the IC50 is > 50 µM (inactive).

With `O=C(Cc1ccccc1F)Nc1nc(-c2ccco2)c(-c2ccco2)s1`, the IC50 is > 50 µM (inactive).

With `Cc1nn(-c2cccc(F)c2)c2c1c(C)c(CCC(=O)NCc1ccccn1)c(=O)n2C`, the IC50 was > 50 µM (inactive).

On to `Nc1ccccc1SCc1noc(-c2cccs2)n1`, for which the IC50 was > 50 µM (inactive).

Take `Cc1ccc(C)c(-n2c(C)cc(/C=C3/C(=N)N4C(c5ccc(F)cc5)=CSC4=NC3=O)c2C)c1`: the IC50 was > 50 µM (inactive).

`Cn1c(=O)c(C(=O)CN2CCN(c3ccc(O)cc3)CC2)c(N)n(Cc2ccccc2)c1=O`: the IC50 was > 50 µM (inactive).

As to `Cc1ccc(NC(=O)CSc2nc3c(cc2C#N)C(=O)CCC3)cc1`, the IC50 is 30.2 µM.

Take `COc1ccc(Cn2cnc3c([nH]c4ccc(Br)cc43)c2=O)cc1`: the IC50 was > 50 µM (inactive).

For the compound `CSc1cccc(NC(=O)COc2cccc3ccccc23)c1`, the half-inhibitory concentration (IC50) was 39.6 µM.

Consider `O=C(c1cc2ccccc2o1)N1CC=C(c2ccccc2)CC1`, for which the IC50 was > 50 µM (inactive).

`Fc1ccc(CSc2nnc(-c3ccccn3)n2Cc2ccco2)cc1`: the IC50 was > 50 µM (inactive).

As for `CC(=O)N1CCc2cc(S(=O)(=O)NCc3ccc(C)cc3)ccc21`, the IC50 was > 50 µM (inactive).

Consider `CC(C)c1cc2c(c(O)c1O)[C@@]13CCCC(C)(C)[C@@H]1C[C@@H]2OC3=O`, for which the IC50 was 28.1 µM.

Consider `O=C1C[C@@H]2O[C@H](CNC(=O)[C@@H]3CN(CCN3C(=O)C3CCOCC3)C(=O)[C@@H]3C[C@@H](CN3Cc3ccc(F)c(F)c3)N1)[C@@H](O)[C@H]2O`, for which the IC50 was > 50 µM (inactive).

`Cc1ccc(Cc2nc(-c3ccc(=O)[nH]c3)no2)cc1`: the IC50 was > 50 µM (inactive).

As to `CN(C)CCc1cc2c(c3c1ccc1ccccc13)OCO2`, the IC50 was > 50 µM (inactive).

For `O=C(NCc1ccc2c(c1)OCO2)c1nn(C23CC4CC(CC(C4)C2)C3)cc1[N+](=O)[O-]`, the IC50 is > 50 µM (inactive).

`Cc1ccc(NC(=O)c2cc(=O)n(C)c3c2c(=O)n(C)c(=O)n3C)c(C)c1`: the IC50 is > 50 µM (inactive).

For `Cc1nc2nc(SCc3nc4ccccc4n3C)[nH]c2cc1Br`, the IC50 is > 50 µM (inactive).

With `COc1cccc(N2CCN(C(=O)CCNS(=O)(=O)c3ccc4c(c3)CCC(=O)N4)CC2)c1`, the IC50 was > 50 µM (inactive).

On to `CC(C)N(C(=O)Cn1c(=O)[nH]c2ccccc21)c1ccccc1`, for which the IC50 was > 50 µM (inactive).

Consider `O=C(Nc1nnc2n1CCCS2)c1cc2ccccc2o1`, for which the IC50 was > 50 µM (inactive).

Regarding `COc1ccc(OC)c(NC(=O)C2Oc3ccccc3NC2=O)c1` (centres undefined), the IC50 was > 50 µM (inactive).

`Fc1ccc(CN2CCc3nc4cccnc4cc3C2)cc1`: the IC50 was > 50 µM (inactive).

For the compound `COC(=O)c1ccc2c(=O)n(CCCCCC(=O)NCc3cccc(Cl)c3)c(=O)[nH]c2c1`, the concentration for half-maximal inhibition (IC50) is 3.22 µM.

Take `Cc1ccc(CN2CCCn3nc(C(=O)NCc4ccc(F)cc4)cc3C2=O)cc1`: the IC50 is > 50 µM (inactive).

With `CCCCNc1nc2c(-c3ccccc3)nnn2c2ccccc12`, the IC50 was > 50 µM (inactive).

Consider `NC(=O)c1nnn(-c2ccc(NC(=O)c3ccc(F)c(F)c3)cc2)n1`, for which the IC50 is 20.3 µM.

In the case of `CN1CCN(c2ccc3nc(-c4ccccc4)c(-c4ccccc4)nc3c2)CC1`, the IC50 was > 50 µM (inactive).

Turning to `COc1ccc(C(C(=O)NC2CCCCC2)N(C(=O)CCCC(=O)Nc2ccccn2)c2ccccc2C)cc1` (centres undefined), the IC50 was 22.3 µM.

On to `COc1ccc(NC(=O)c2ccc(Nc3nnc(C)c4ccccc34)cc2)cc1`, for which the IC50 was > 50 µM (inactive).
